Source: patent US20150031714A1, “METHODS AND COMPOSITIONS FOR PREVENTION OF ALLERGIC REACTION” (Baylor College of Medicine, priority 2013, published 2015)

Tested on: MEF/GFP-Stat3α cells
Assay: High-throughput fluorescence microscopy (HTFM) cytoplasmic-to-nuclear translocation of GFP-Stat3α
Format: cell-based, murine
Settings: Mus musculus, 0.5 h; Table 4; MEF/GFP-Stat3α, IL-6 200 ng/ml and IL-6sR 250 ng/ml 30 min; read-out: HTM IC50
Protocol: Coverslips were examined by confocal fluorescent microscopy using filters to detect GFP (column one), DAPI (column two) or both (merge; column three). In panel B, MEF-GFP-Stat3 cells were grown in 96-well plates with optical glass bottoms and pretreated with the indicated compound at the indicated concentrations in quadruplicate for 1 hour then stimulated with IL-6 (200 ng/ml) and IL-6sR (250 ng/ml) for 30 minutes. Cells were fixed and the plates were examined by high-throughput microscopy to determine the fluorescence intensity in the nucleus (FLIN) and the % ΔFLINMax was calculated as described in Example 1. Data shown are mean±SD and are representative of 2 or more studies. Best-fit curves were generated based on 4 Parameter Logistic Model/Dose Response One Site/XLfit 4.2, IDBS and were used to calculate IC50 (Table 1).
Confocal and high-throughput fluorescence microscopy. Confocal and highthroughput fluorescence microscopy (HTFM) of MEF/GFP-Stat3α cells were performed as described (Huang et al., 2007). Briefly, for confocal fluorescence microscopy, cells were grown in 6-well plates containing a cover slip. For HTFM, cells were seeded into 96-well CC3 plates at a density of 5,000 cells/well using an automated plating system. Cells were cultured under standard conditions until 85-90% confluent. Cells were pretreated with compound for 1 hour at 37° C. then stimulated with IL-6 (200 ng/ml) and IL-6sR (250 ng/ml) for 30 minutes. […] Plates were analyzed by automated HTFM using the Cell Lab IC Image Cytometer (IC100) platform and CytoshopVersion 2.1 analysis software (Beckman Coulter). Nuclear translocation is quantified by using the fraction localized in the nucleus (FLIN) measurement (Sharp et al., 2006). […]
EXP IIB. High throughput fluorescence microscopy (HTFM), cytoplasm-to-nucleus translocation inhibition assays. […] Plates are analyzed by automated HTFM using the Cell Lab IC Image Cytometer (IC100) platform and CytoshopVersion 2.1 analysis software (Beckman Coulter). […]

| IC50 [µM] | SMILES |
| --- | --- |
| 131 | O=C(O)c1ccc(C=CC(=O)c2ccc3c(c2)OCCO3)cc1 [Cpd3, 4-[3-(2,3-dihydro-1,4-benzodioxin-6-yl)-3-oxo-1-propen-1-yl]benzoic acid] |
| 150 | CCOc1cc(C=C2C(=O)c3ccccc3C2=O)cc(Cl)c1OCc1cccc(C(=O)O)c1 [Cpd3-2, 3-({2-chloro-4-[(1,3-dioxo-1,3-dihydro-2H-inden-2-ylidene)methyl]-6-ethoxyphenoxy}methyl)benzoic acid] |
